For orientation: GI50 means the concentration that inhibits growth by half. By TGI is commonly meant the concentration at which net growth stops. Read a high TGI as lower sensitivity of the cells.

What all share (assay): DTP human tumour cell line panel, 48 h
In assay [1] the test system is 786-0 renal.
The subject of assay [2] is A549 NSCLC.
Assay [3] concerns CCRF-CEM leukemia.
Assay [4] relates to COLO 205 colon.
Assay [5] concerns IGROV1 ovarian.
For assay [6], the system named is LOX IMVI melanoma.
Assay [7] concerns M14 melanoma.
The test system of assay [8] is NCI-H460 lung.
Assay [9] has as its system NCI/ADR-RES ovarian.
In assay [10] the test system is SN12C renal.

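Protocol summary: plate cells (96-well), add compound at 5 concentrations, incubate 48 h, interpolate endpoints linearly. At the GI50, growth is halved. Definition used: TGI = concentration required for complete inhibition of growth.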

Consider `C=C1C(=O)O[C@H]2[C@H]1CC/C(Cn1cc(Cn3ccc4ccccc43)nn1)=C\CC[C@@]1(C)O[C@@H]21`, for which the GI50 in [1] was 1.59 µM; in assay [2] it was 13.1 µM; in assay [3], 0.298 µM; in [4] it was 1.71 µM; in [5], 1.86 µM; in [6] it was 1.59 µM. Also, the GI50 was 1.25 µM in assay [7], 5.66 µM in assay [8], 5.07 µM in [9] and 1.65 µM in assay [10]. Moreover, the TGI came to 3.12 µM in assay [1]; 27.4 µM in assay [2]; 1.73 µM in assay [3]; 3.41 µM in assay [4]; 3.61 µM in [5]; 3.08 µM in [6]. Besides, the TGI in assay [7] was determined as 2.79 µM; in [8], 19.7 µM; in assay [9], 21.6 µM; in assay [10], 3.46 µM.

For `CN[C@]12CC3(C=CC(=O)C=C3)O[C@@]1(Cc1ccc(OC)cc1)N(C)C(=O)N2`, the GI50 in assay [1] was 2.03 µM; in assay [2], 3.11 µM; in [3], 1.8 µM; in [4], 2.53 µM; in assay [5], 1.78 µM; in assay [6] it was 1.56 µM. For the same compound, the GI50 in assay [7] is 1.99 µM; in assay [8], 3.44 µM; in assay [9], 3.46 µM; in assay [10] it was 1.7 µM. For the same compound, the TGI amounted to 4.12 µM in assay [1]; 14 µM in assay [2]; 3.72 µM in assay [3]; 6.66 µM in assay [4]; 4.1 µM in assay [5]; 3.2 µM in assay [6]. The TGI is 7.6 µM in [7], 13.7 µM in assay [8], > 100 µM in assay [9] and 7.13 µM in [10].

`O=C1OCc2c1cc(F)cc2[N+](=O)[O-]`: the GI50 is > 100 µM in [1]; > 100 µM in assay [2]; > 100 µM in [3]; 47.6 µM in [4]; > 100 µM in assay [5]; > 100 µM in assay [6]. Moreover, the GI50 in assay [7], in assay [8], in [9] and in [10] was > 100 µM throughout. The TGI in assay [1], in [2], in assay [3], in assay [4], in assay [5] and in assay [6] was > 100 µM in each case. Besides, the TGI in assay [7], in assay [8], in assay [9] and in assay [10] was > 100 µM each time.

Regarding `O=C(Nc1nccs1)c1cc2c(cc1Cl)Sc1nccn1S2(=O)=O`, the GI50 was 16 µM in assay [1]; 23.8 µM in assay [2]; 5.05 µM in assay [3]; 11.7 µM in [5]; 10.9 µM in assay [6]; 17.8 µM in [7]. The results for the GI50 in assay [9] and in [10] were 18.9 µM and 16.8 µM, respectively. For the same compound, the TGI in [1] was 29.4 µM; in assay [2], 63.4 µM; in [3], 24.8 µM; in [4], 30.7 µM; in assay [5], 29.8 µM; in [6] it was 25.6 µM. In addition, the TGI was 34.6 µM in [7], 29.5 µM in [8], 44.7 µM in assay [9] and 32.6 µM in assay [10].

With `COc1cc(/C=C/C(=O)c2ccc(Nc3ncnc4ccccc34)cc2)cc(OC)c1`, the GI50 in assay [1] was 4.2 µM; in assay [2], 3.2 µM; in [3] it was 4.04 µM; in [4], 9.59 µM; in assay [5], 13.5 µM; in [6] it was 1.85 µM. Also, the GI50 in assay [7] is 3.95 µM; in assay [8] it was 14.2 µM; in [9], 6.52 µM; in assay [10], 7.3 µM. For the same compound, the TGI in assay [1] amounted to 14.5 µM; in assay [2], 14.4 µM; in [3] it was 22.8 µM; in assay [4], 39.8 µM; in [5], 60.2 µM; in assay [6], 4.16 µM. Moreover, the TGI was 14.6 µM in assay [7], > 100 µM in assay [8], > 100 µM in assay [9] and 38 µM in assay [10].

Consider `C/C(CC(=O)NNc1ccc([N+](=O)[O-])cc1)=N\Nc1ccc([N+](=O)[O-])cc1`, for which the GI50 is 10.4 µM in [1]; 5.42 µM in assay [2]; 4.76 µM in assay [3]; 3.8 µM in assay [4]; 14.1 µM in [5]; 2.72 µM in [6]. Also, the GI50 in assay [7] was 2.11 µM; in assay [8], 4.14 µM; in assay [9], 15.1 µM; in [10] it was 17.8 µM. For the same compound, the TGI in assay [1], in assay [2], in assay [3], in [4], in [5] and in assay [6] was > 100 µM throughout. Moreover, the TGI in assay [7] was 18.3 µM; in assay [8], > 100 µM; in [9], > 100 µM; in assay [10], > 100 µM.

Turning to `C=C1C(=O)O[C@H]2[C@H]1CC/C(COC(=O)CCCCCCCCC(=O)OC/C1=C/CC[C@@]3(C)O[C@H]3[C@H]3OC(=O)C(=C)[C@@H]3CC1)=C\CC[C@@]1(C)O[C@@H]21`, the GI50 is 1.75 µM in assay [1]; 6.63 µM in assay [2]; 2.02 µM in [3]; 1.89 µM in assay [4]; 1.97 µM in [5]; 1.62 µM in assay [6]. Also, the GI50 in assay [7] is 1.63 µM; in assay [8] it was 2.14 µM; in [9] it was 3.14 µM; in assay [10] it was 2.26 µM. The TGI is 3.41 µM in assay [1]; 22.1 µM in assay [2]; 11.8 µM in [3]; 4.15 µM in [4]; 4.24 µM in [5]; 3.08 µM in assay [6]. Further, the TGI in [7] is 3.41 µM; in [8], 4.4 µM; in [9] it was 13.5 µM; in assay [10], 5.32 µM.

Consider `COc1ccc(/C(C)=C(\c2ccc(Cl)cc2)c2ccc(OCCN3CCCC3)cc2)cc1F`, for which the GI50 is 3.39 µM in [1]; 3.01 µM in [2]; 4.24 µM in assay [3]; 2.16 µM in assay [4]; 3.17 µM in assay [5]; 1.04 µM in assay [6]. Also, the GI50 was 0.882 µM in assay [7], 2.1 µM in assay [8], 3.9 µM in assay [9] and 3.55 µM in assay [10]. Besides, the concentration for total growth inhibition (TGI) in assay [1] is 7.02 µM; in assay [2], 7.01 µM; in assay [3], 10.7 µM; in assay [4], 7.49 µM; in [5], 7.21 µM; in assay [6], 3.66 µM. For the same compound, the TGI in assay [7] turned out to be 3.09 µM; in [8], 5.29 µM; in assay [9], 7.8 µM; in assay [10], 7.12 µM.

For the compound `O=C1C(=O)c2ccccc2-c2ccccc21`, the GI50 in assay [1] is 1.83 µM; in [2] it was 2.48 µM; in [3], 1.5 µM; in [4], 2.02 µM; in assay [5] it was 2.07 µM; in assay [6] it was 0.367 µM. Besides, the GI50 is 1.76 µM in assay [7], 1.92 µM in assay [8], 0.543 µM in assay [9] and 1.61 µM in assay [10]. Further, the TGI in [1] was 3.35 µM; in assay [2], 6.54 µM; in [3] it was 4.85 µM; in assay [4], 4.28 µM; in [5], 3.75 µM; in [6], 1.79 µM. Further, the TGI was 3.29 µM in [7], 3.99 µM in assay [8], 2.9 µM in assay [9] and 3.29 µM in assay [10].

Consider `Cc1cc(C)c(O)c(Cc2cccc(Cc3cc(C)cc(C)c3O)c2O)c1`, for which the TGI in [1], in [2], in assay [3], in [4], in assay [5] and in assay [6] was > 100 µM throughout. For the same compound, the TGI in assay [7], in assay [8], in assay [9] and in assay [10] was > 100 µM in each case.

The values above are taken from PubChem BioAssay (NCI).
